# Measured values reported in patent US20080275032A1, “Pyridazinone compounds” (priority 2006, published 2008).
# Biological target: HCV NS5B polymerase (Hepatitis C virus genotype 1b, UniProt P26663)
# Assay: biochemical
# Conditions: HCV polymerase inhibition, 50 nM enzyme, 2 h at room temperature, FlashPlate [α-33P]GTP incorporation
# HCV NS5B polymerase, sequence (P26663 2420-3010): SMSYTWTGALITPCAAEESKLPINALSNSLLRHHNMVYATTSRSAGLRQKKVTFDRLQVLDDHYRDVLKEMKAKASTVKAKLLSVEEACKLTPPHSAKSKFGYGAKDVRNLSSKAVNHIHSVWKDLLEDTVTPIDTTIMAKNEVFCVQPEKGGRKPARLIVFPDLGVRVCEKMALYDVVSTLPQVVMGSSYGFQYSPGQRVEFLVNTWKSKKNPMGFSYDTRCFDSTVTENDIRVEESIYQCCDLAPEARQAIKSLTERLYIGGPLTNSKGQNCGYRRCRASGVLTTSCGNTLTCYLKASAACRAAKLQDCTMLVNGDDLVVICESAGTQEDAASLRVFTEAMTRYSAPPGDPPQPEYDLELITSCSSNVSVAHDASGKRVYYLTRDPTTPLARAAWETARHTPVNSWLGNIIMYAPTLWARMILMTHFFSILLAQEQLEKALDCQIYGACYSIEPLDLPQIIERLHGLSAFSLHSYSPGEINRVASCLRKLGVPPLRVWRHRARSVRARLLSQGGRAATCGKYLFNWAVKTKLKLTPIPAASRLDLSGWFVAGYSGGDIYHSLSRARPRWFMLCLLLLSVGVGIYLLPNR
row,Compound,IC50
1,"CCS(=O)(=O)Nc1ccc2c(c1)S(=O)(=O)NC(c1c(O)c(-c3cccs3)nn(CCC(C)C)c1=O)=N2 [Ethanesulfonic acid {3-[5-hydroxy-2-(3-methyl-butyl)-3-oxo-6-thiophen-2-yl-2,3-dihydro-pyridazin-4-yl]-1,1-dioxo-1,2-dihydro-1λ^6-benzo[1,2,4]thiadiazin-7-yl}-amide]",< 100 nM
2,"CC(C)CCn1nc(-c2cccs2)c(O)c(C2=NS(=O)(=O)c3cc(N4CCCS4(=O)=O)ccc3N2)c1=O [4-[7-(1,1-Dioxo-1l6-isothiazolidin-2-yl)-1,1-dioxo-1,2-dihydro-1λ^6-benzo[1,2,4]thiadiazin-3-yl]-5-hydroxy-2-(3-methyl-butyl)-6-thiophen-2-yl-2H-pyridazin-3-one]",100 to 1000 nM
3,"CC(C)CCn1nc(C2=CCCC2)c(O)c(C2=NS(=O)(=O)c3cc(NS(C)(=O)=O)ccc3N2)c1=O [N-{3-[6-Cyclopent-1-enyl-5-hydroxy-2-(3-methyl-butyl)-3-oxo-2,3-dihydro-pyridazin-4-yl]-1,1-dioxo-1,2-dihydro-1λ^6-benzo[1,2,4]thiadiazin-7-yl}-methanesulfonamide]",< 100 nM
4,"CC(C)(C)c1nn(Cc2ccc(F)c(Cl)c2)c(=O)c(C2=Nc3ccc(NS(C)(=O)=O)cc3S(=O)(=O)N2)c1O [N-{3-[6-tert-Butyl-2-(3-chloro-4-fluoro-benzyl)-5-hydroxy-3-oxo-2,3-dihydro-pyridazin-4-yl]-1,1-dioxo-1,2-dihydro-1λ^6-benzo[1,2,4]thiadiazin-7-yl}-methanesulfonamide]",100 to 1000 nM
5,"CC(C)CCn1nc(-c2cccs2)c(O)c(C2=NS(=O)(=O)c3cc(NS(=O)(=O)C(C)C)ccc3N2)c1=O [Propane-2-sulfonic acid {3-[5-hydroxy-2-(3-methyl-butyl)-3-oxo-6-thiophen-2-yl-2,3-dihydro-pyridazin-4-yl]-1,1-dioxo-1,2-dihydro-1λ^6-benzo[1,2,4]thiadiazin-7-yl}-amide]",< 100 nM
6,"CC(C)=Cc1nn(CCC(C)C)c(=O)c(C2=NS(=O)(=O)c3cc(NS(C)(=O)=O)ccc3N2)c1O [N-{3-[5-Hydroxy-2-(3-methyl-butyl)-6-(2-methyl-propenyl)-3-oxo-2,3-dihydro-pyridazin-4-yl]-1,1-dioxo-1,2-dihydro-1λ^6-benzo[1,2,4]thiadiazin-7-yl}-methanesulfonamide]",< 100 nM
7,"CC(C)CCn1nc(-c2cc[nH]c2)c(O)c(C2=Nc3ccc(NS(C)(=O)=O)cc3S(=O)(=O)N2)c1=O [N-{3-[5-Hydroxy-2-(3-methyl-butyl)-3-oxo-6-(1H-pyrrol-3-yl)-2,3-dihydro-pyridazin-4-yl]-1,1-dioxo-1,2-dihydro-1λ^6-benzo[1,2,4]thiadiazin-7-yl}-methanesulfonamide]",< 100 nM
8,"CC(C)(C)CCn1nc(-c2cccs2)c(O)c(C2=NS(=O)(=O)c3cc(N(COC(=O)C(C)(C)C)S(C)(=O)=O)ccc3N2)c1=O [2,2-Dimethyl-propionic acid ({3-[2-(3,3-dimethyl-butyl)-5-hydroxy-3-oxo-6-thiophen-2-yl-2,3-dihydro-pyridazin-4-yl]-1,1-dioxo-1,2-dihydro-1λ^6-benzo[1,2,4]thiadiazin-7-yl}-methanesulfonyl-amino)-methylester]",100 to 1000 nM
9,"CCN(CC)CCS(=O)(=O)Nc1ccc2c(c1)S(=O)(=O)NC(c1c(O)c(-c3cccs3)nn(CCC(C)(C)C)c1=O)=N2 [2-Diethylamino-ethanesulfonicacid {3-[2-(3,3-dimethyl-butyl)-5-hydroxy-3-oxo-6-thiophen-2-yl-2,3-dihydro-pyridazin-4-yl]-1,1-dioxo-1,4-dihydro-1λ^6-benzo[1,2,4]thiadiazin-7-yl}-amide]",100 to 1000 nM
10,"CS(=O)(=O)Nc1ccc2c(c1)S(=O)(=O)NC(c1c(O)c(-c3cccs3)nn(Cc3ccccn3)c1=O)=N2 [N-[3-(5-Hydroxy-3-oxo-2-pyridin-2-ylmethyl-6-thiophen-2-yl-2,3-dihydro-pyridazin-4-yl)-1,1-dioxo-1,2-dihydro-1λ^6-benzo[1,2,4]thiadiazin-7-yl]-methanesulfonamide]",< 100 nM
11,"CS(=O)(=O)Nc1ccc2c(c1)S(=O)(=O)NC(c1c(O)c(-c3ccsc3)nn(CCC3CC3)c1=O)=N2 [N-{3-[2-(2-Cyclopropyl-ethyl)-5-hydroxy-3-oxo-6-thiophen-3-yl-2,3-dihydro-pyridazin-4-yl]-1,1-dioxo-1,2-dihydro-1λ^6-benzo[1,2,4]thiadiazin-7-yl}-methanesulfonamide]",< 100 nM
12,"CC(C)CCn1nc(-c2ccccc2)c(O)c(C2=Nc3ccc(NS(C)(=O)=O)cc3S(=O)(=O)N2)c1=O [N-{3-[5-Hydroxy-2-(3-methyl-butyl)-3-oxo-6-phenyl-2,3-dihydro-pyridazin-4-yl]-1,1-dioxo-1,2-dihydro-1λ^6-benzo[1,2,4]thiadiazin-7-yl}-methanesulfonamide]",< 100 nM
13,"CC(C)CCn1nc(-c2cncs2)c(O)c(C2=Nc3ccc(NS(=O)(=O)C(C)(C)C)cc3S(=O)(=O)N2)c1=O [2-Methyl-propane-2-sulfonic acid{3-[5-hydroxy-2-(3-methyl-butyl)-3-oxo-6-thiazol-5-yl-2,3-dihydro-pyridazin-4-yl]-1,1-dioxo-1,2-dihydro-1λ^6-benzo[1,2,4]thiadiazin-7-yl}-amide]",< 100 nM
14,"CN(c1ccc2c(c1)S(=O)(=O)NC(c1c(O)c(CC(C)(C)C)nn(CC3CCC3)c1=O)=N2)S(C)(=O)=O [N-{3-[2-Cyclobutylmethyl-6-(2,2-dimethyl-propyl)-5-hydroxy-3-oxo-2,3-dihydro-pyridazin-4-yl]-1,1-dioxo-1,2-dihydro-1λ^6-benzo[1,2,4]thiadiazin-7-yl}-N-methyl-methanesulfonamide]",1000 to 10000 nM
